Literature values in the CATMoS acute toxicity set (Mansouri et al. 2021).
Several values for one entry are separate records, joined by “and”; a condition that tells them apart may be missing. Identical values can stand only once.

Test: rat acute oral toxicity
Conditions: in vivo
Source text: […]The data set underlying the modeling effort for this project was initially compiled by NICEATM and U.S. EPA’s CCTE. Briefly, LD50 data were collected from rat acute oral systemic toxicity tests, including limit tests, ranges/confidence intervals, and discrete LD50 values. The full data set included 21,200 LD50 entries for 15,688 substances. […] Data were reviewed to ensure that LD50 values with obvious errors in the extracted data such as unit conversion errors (e.g., comma and decimal separator misplacements) were either fixed or removed. After this review, 16,209 LD50 values remained. Many of the chemicals represented had multiple LD50 entries, requiring that a single representative value per Chemical Abstracts Service Registry Number (CASRN) identifier be defined to facilitate modeling efforts. Based on ATWG feedback and to define the representative LD50 as a protective value while accounting for the distribution across multiple LD50s, the median of the lowest quartile was computed using only discrete LD50 values (omitting limit test data and range and confidence interval data). A detailed summary of the data compilation is available online on the NICEATM webpage dedicated to the collaborative modeling project (NTP 2020).
[…][…] For categorical designations, limit test and range/confidence interval LD50 data were integrated wherever possible. As such, the number of chemicals with end point values/calls varies across the modeling end points (Table 3) based on whether chemicals had representative LD50 values and/or other data. If a chemical had both, the representative value was used to determine categorical calls rather than limit test data. Some data were useable only for certain end points and categories depending on the thresholds. For example, ranges that spanned multiple hazard categories were considered only for the binary (very toxic/nontoxic) end points and omitted from rendering a determination for hazard category assignment.
[…]The final data set comprising 11,992 chemicals was split into training and evaluation sets […], respectively. This process was performed semirandomly by ordering chemicals based on the five end points (categorical and continuous LD50 values) and partitioning every fourth record into the evaluation set accordingly. This approach was taken to ensure an equivalent distribution of the LD50 values and the different hazard categories between the training and the evaluation sets without supervised sampling of the chemicals based on structures (Figure 1A). The sources of the chemical structures were also kept equivalent between the two sets, with chemical structures obtained from DSSTox, being the highest quality, representing over 75% of each set (Figure 1B).

SMILES | LD50
Cc1ccc(CN(C)N=O)cc1 | 400 mg/kg
CCC(=O)OC(=O)CC | 2360 mg/kg
O=C(O)C1CCc2cc(C3CCCCC3)c(Cl)cc21 (centres undefined) | 41 mg/kg and 35 mg/kg
CCOP(=S)(OCC)Oc1ccccc1[N+](=O)[O-] | 25 mg/kg
OC[C@H]1CO[C@@H](Cc2ccccc2)O1 | 1720 mg/kg
Cc1nn(-c2cc(NS(C)(=O)=O)c(Cl)cc2Cl)c(=O)n1C(F)F | 2860 mg/kg
CCOP(=O)(OCC)SCCS(=O)CC (centres undefined) | 2 mg/kg
C=C(CCC)C1C(C=C(C)C)C1(C)C (centres undefined) | 2600 mg/kg
Cc1cc(Cl)ccc1OCCCC(=O)O | 700 mg/kg
Cc1cnccn1 | 1800 mg/kg
O=C(CCl)CCl | 20 mg/kg
O=[N+]([O-])c1ccc(O/N=C/c2cc(Br)c(O)c(Br)c2)c([N+](=O)[O-])c1 | 1100 mg/kg
COC1OC(CNC(=O)N(CCCl)N=O)C(O)C(O)C1O (centres undefined) | 46.4 mg/kg
CC(=O)N1CCN(c2ccc(OC[C@H]3CO[C@](Cn4ccnc4)(c4ccc(Cl)cc4Cl)O3)cc2)CC1 | 166 mg/kg
CCN(CC)c1ccc(C=O)c(O)c1 | 2260 mg/kg
Nc1cc2c(cc1C1CCCCC1)CCC2C(=O)O (centres undefined) | 54 mg/kg
COc1ccc(C)cc1N | 1450 mg/kg
c1ccc(C2(c3ccccc3)CC2C2=NCCN2)cc1 (centres undefined) | 359 mg/kg
CC(C(=O)OCCN1CCN(CCOC(=O)C(C)c2cccc3ccccc23)CC1)c1cccc2ccccc12 (centres undefined) | 5550 mg/kg
O=C(OCC1CO1)c1ccccc1 (centres undefined) | 1410 mg/kg

SMILES | LD50
CC(C)(C)C(=O)CCl | 550 mg/kg
CCN(CC)CCOc1ccc(C2=C(c3ccccc3)Cc3cc(OC)ccc32)cc1 | 547 mg/kg
CC(=O)N1CCOCC1 | 6130 mg/kg
CC(C)(C)c1cc(C(=O)O)cc(C(C)(C)C)c1O | 1410 mg/kg
OB(O)c1ccccc1 | 740 mg/kg
COc1ccc(CCNC[C@H](O)c2ccc(O)cc2)cc1OC | 9370 mg/kg
CC(C)=CC1CC(C)CCO1 (centres undefined) | 4300 mg/kg
CC(C)OP(=S)(CCl)Sc1ccc(Cl)cc1 (centres undefined) | 26 mg/kg
COc1ccccc1OC(=O)CNC(=O)Cc1ccc(C(=O)c2ccc(C)cc2)n1C | 1450 mg/kg
CC(N)CC(C)(C)N (centres undefined) | 431 mg/kg
CNC(=O)ON=C1SC(C)C(=O)NC1(C)C (centres undefined) | 0.884 mg/kg
Cc1ccc2c(-c3cccc(O)c3)nc(=O)n(C(C)C)c2c1 | 1600 mg/kg
O=C1C2C3C=C(C(O)(c4ccccc4)c4ccccn4)C(C3=C(c3ccccc3)c3ccccn3)C2C(=O)N1Cc1ccccn1 (centres undefined) | 5.2 mg/kg
CCOc1ccc(Cl)cc1C(CN1CCCCC1)C(C)CC (centres undefined) | 445 mg/kg
Nc1ccc(-c2ccc(-n3nc4ccc5c(S(=O)(=O)O)cc(S(=O)(=O)O)cc5c4n3)cc2)cc1S(=O)(=O)O | 9500 mg/kg
C(=Nc1ccccc1)Nc1ccccc1 | 1900 mg/kg
C=CC(COC)c1ccccc1OC(=O)NC (centres undefined) | 100 mg/kg
CC(C)CC(C)CC(=O)O (centres undefined) | 900 mg/kg
CCSC(SCC)c1ccccc1OC(=O)NC | 500 mg/kg
O=C(O)C(F)(F)C(F)(F)C(F)(F)C(F)(F)C(F)(F)C(F)(F)C(F)(F)F | 430 mg/kg

SMILES | LD50
O=C(OCC(O)C1COc2ccccc2O1)N1CCOCC1 (centres undefined) | 1500 mg/kg
CCCCCCCCC(CC=CCl)CCCN (centres undefined) | 1320 mg/kg
NCCC[C@H](N)C(=O)O | 10000 mg/kg
CCCNC(=O)OCC(O)C1COc2ccccc2O1 (centres undefined) | 1500 mg/kg
Cc1nn(C)c(OCC(=O)c2ccccc2)c1C(=O)c1ccc(Cl)cc1Cl | 1640 mg/kg
CCOC(=O)c1cnn(C)c1-n1cnc2ccccc2c1=O | 1760 mg/kg
O=P(OCC(Cl)CCl)(OCC(Cl)CCl)OCC(Cl)CCl (centres undefined) | 2830 mg/kg
COP(=O)(OC)Oc1ccc([N+](=O)[O-])cc1 | 3.27 mg/kg
COC(=O)c1ccccc1O | 1700 mg/kg
CC(C)CC(O)CC(CC(C)C)CC(C)C (centres undefined) | 16300 mg/kg
CC(C)(C)C(=O)CC#N | 283 mg/kg
O=C(Cl)c1cc(Cl)cc(Cl)c1 | 794 mg/kg
N#CC(Cl)(Cl)C#N | 130 mg/kg
CCCCCCCCCCC(C)c1ccc(S(=O)(=O)O)cc1 (centres undefined) | 437 mg/kg
COP(=S)(OC)SCC(=O)N(c1ccc(Cl)cc1)C(C)C | 472 mg/kg
O=[N+]([O-])CCCO | 77 mg/kg
CCOP(=S)(OCC)SC(C#N)c1ccccc1 (centres undefined) | 100 mg/kg
CCCc1ccc(OC)cc1 | 4400 mg/kg
C=CCOC(=O)OC(=C)C(=O)OCC=C | 390 mg/kg
